Laboratory results published in patent US7879852B2, “Melanocortin receptor agonists” (LG Life Sciences Ltd., priority 2006, dated 2011).

These compounds were tested against T1, human melanocortin receptor 4 (MC4R) (Homo sapiens, UniProt P32245) (assay: Luciferase assay). Settings: agonistic activity at MC4R (Table 18); patent does not state whether luciferase or cAMP assay.
T1 construct: expressed in transfected cells; grown with 200 ug/ml Geneticin
Type: cell-based
Procedure: Cell lines expressing human melanocortin receptor 4 (MC4R) were dissociated from tissue culture dishes by rinsing with Ca^++, Mg^++ free DPBS, treated with 1× Trypsin/EDTA solution for 1 min at 37° C., and resuspended with DMRM (GIBCO-BRL) supplemented with 10% FBS. The cells were counted and diluted with DMEM supplemented with 10% FBS and 200 ug/ml of Geneticin to […]. 90 ul of cell suspension was plated onto each well of 96-well black and clear bottom culture plates (Costar). After the incubation for 24 h in the atmosphere of 6% CO2 at 37° C., 10 ul of NDP-MSH and test compounds diluted in DMSO were added to each well. The final DMSO concentration was 1%. After 4 h of incubation in the atmosphere of 6% CO2 at 37° C., 50 ul of Bright-Glo (Promega) was added to each well. Luciferase activity was measured by using L-Max luminometer (Molecular Device). The amount of luciferase activity induced by treatment with NDP-MSH was defined as 100% to obtain the relative efficacy of test compounds. The EC0.5 MSH was defined as the concentration of test compounds that results in half maximal activity of NDP-MSH. The EC50 was defined as the concentration of test compound that results in half maximal activity of its own.

T1 sequence (P32245 whole entry): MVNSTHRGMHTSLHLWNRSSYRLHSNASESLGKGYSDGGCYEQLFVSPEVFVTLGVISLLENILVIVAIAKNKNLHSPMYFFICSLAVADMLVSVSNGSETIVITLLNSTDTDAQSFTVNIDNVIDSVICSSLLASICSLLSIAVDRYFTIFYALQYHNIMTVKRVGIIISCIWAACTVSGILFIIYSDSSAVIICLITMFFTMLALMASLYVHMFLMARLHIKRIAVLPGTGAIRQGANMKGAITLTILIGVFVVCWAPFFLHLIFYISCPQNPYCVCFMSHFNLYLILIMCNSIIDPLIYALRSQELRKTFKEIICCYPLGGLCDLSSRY

| EC50 [nM] | SMILES |
| --- | --- |
| 22 | COCC(C)(C)C(=O)N(C1CCC(F)(F)CC1)[C@H]1C[C@@H](C(=O)N(C)C)N(C(=O)[C@@H]2CN(C(C)(C)C)C[C@H]2c2ccc(Cl)cc2)C1 [Example C24] |
| 38 | CC1(C)CCC(N(C(=O)C(C)(C)C(N)=O)[C@H]2CCN(C(=O)C3CN(C(C)(C)C)C[C@H]3c3ccc(Cl)cc3)C2)CC1 (stereo partly drawn) [Example C1, N-[(3S)-1-{[(3S,4R)-1-tert-butyl-4-(4-chlorophenyl)pyrrolidine-3-yl]carbonyl}pyrrolidine-3-yl]-N-(4,4-dimethylcyclohexyl)-2,2-dimethylmaloneamide] |
| 24 | CN1C[C@@H](C(=O)N2C[C@@H](N(C(=O)C(C)(C)C)[C@H]3CC[C@@H](C)CC3)C[C@H]2C(N)=O)[C@H](c2ccc(Cl)cc2)C1 [Example A7, (4S)-1-{[(3S,4R)-4-(4-Chlorophenyl)-1-methylpyrrolidine-3-yl]carbonyl}-4-[(2,2-dimethylpropanoyl)(cis-4-methylcyclohexyl)amino]-L-prolineamide] |
| 38 | CC(=O)N(C1CCC(C)(C)CC1)[C@H]1C[C@@H](C(=O)N2CCOCC2)N(C(=O)[C@@H]2CN(C(C)(C)C)C[C@H]2c2ccc(Cl)cc2)C1 [Example A96] |
